Results reported in US8691864B2, “Agents useful for reducing amyloid precursor protein and treating dementia and methods of use thereof” (priority 2000, dated 2014).

Columns and labels:
secreted APP = experiment: ELISA for secreted APP in SHSY5Y cells; assay type: cell-based, human; conditions: 16 hours
Protocol: (§1) An enzyme-linked immunosorbent assay was developed to detect secreted APP in SHSY5Y cells, a human neuroblastoma cell line. The purpose of the screen was to discover small molecules that inhibit APP protein synthesis in SHSY5Y cells. SHSY5Y cells were plated at 1×10^5 cells/well in […] of DMEM containing 0.5% heat inactivated FBS in 96 well tissue culture treated plates (Falcon no. 35 3072). 144 MES compounds were tested at final concentrations of […] in 0.1% DMSO. Compounds were added and the plates incubated for 16 hours at 37° C./5% CO2. Maxisorp plates (Nunc no. 437958) were coated overnight with […] capture antibody (Biosource 44-100) diluted in Ca^++ and Mg^++ free PBS. Biosource 44-100 is a mouse mAb that recognizes aa 1-100 of human APP. Plates were blocked for 30 minutes with 1 mg/mL BSA in Ca^++ and Mg^++ free PBS. Plates were washed 3× with wash buffer (Ca^++ and Mg^++ free PBS+0.01% Tween20). […] of supernatants and non-cultured medium controls were transferred from culture plates to ELISA plates. Culture plates were reserved for toxicity analysis. Supernatants were incubated for 4 hours at RT on a plate shaker. After supernatant incubation, plates were washed 3×. Primary antibody (Signet Clone 6E-10 biotin) was added at 0.3125 mg/mL and incubated overnight at 4° C. The recognition site of 6E-10 is aa 1-17 of Ab. For detection, a 1:3000 dilution of horseradish peroxidase conjugated streptavidin (Endogen no. N-100) was incubated for 30 minutes. Plates were washed 3×. Enzyme activity was assessed by incubation with […] TMB substrate solution (Moss no. TMB-US) for 20 minutes. The reaction was stopped by the addition of […] 0.18M sulfuric acid. Optical density was read at 450 nm on Wallac Victor2 plate reader. During the first incubation, toxicity was determined using MTS assay, Cell Titer96 AQ reagent (Promega no. G5430). The background values from the non-cultured medium control were subtracted from the sample values and secreted APP levels and toxicity were expressed as % vehicle control. Of the 144 MES compounds screened, 12 inhibited secreted APP as determined by ELISA. The results are depicted in FIGS. 13A-M.
(§2) Using the experimental procedure outlined above, APP secretion and toxicity studies were performed on several other non-carbamate compounds, and the results are shown in Tables 3 and 4. The compound structures are provided in Table 2 in the application, which are identified by their MES number.

SH-SY-5Y Cells = experiment: MTS toxicity assay in SHSY5Y cells; assay type: cell-based, human
Protocol: as §1, §2

| SMILES | APP Secretion by SH-SY-5Y Cells (secreted APP; Dose 0.08 uM) [% vehicle control] | APP Secretion by SH-SY-5Y Cells (secreted APP; Dose 0.25 uM) [% vehicle control] | APP Secretion by SH-SY-5Y Cells (secreted APP; Dose 0.74 uM) [% vehicle control] | APP Secretion by SH-SY-5Y Cells (secreted APP; Dose 2 uM) [% vehicle control] | APP Secretion by SH-SY-5Y Cells (secreted APP; Dose 6 uM) [% vehicle control] | APP Secretion by SH-SY-5Y Cells (secreted APP; Dose 20 uM) [% vehicle control] | APP Toxicity SH-SY-5Y Cells (MTS assay) (SH-SY-5Y Cells; Dose 0.08 uM) [% vehicle control] | APP Toxicity SH-SY-5Y Cells (MTS assay) (SH-SY-5Y Cells; Dose 0.25 uM) [% vehicle control] | APP Toxicity SH-SY-5Y Cells (MTS assay) (SH-SY-5Y Cells; Dose 0.74 uM) [% vehicle control] | APP Toxicity SH-SY-5Y Cells (MTS assay) (SH-SY-5Y Cells; Dose 2 uM) [% vehicle control] | APP Toxicity SH-SY-5Y Cells (MTS assay) (SH-SY-5Y Cells; Dose 6 uM) [% vehicle control] | APP Toxicity SH-SY-5Y Cells (MTS assay) (SH-SY-5Y Cells; Dose 20 uM) [% vehicle control] | APP Toxicity SH-SY-5Y Cells (MTS assay) (SH-SY-5Y Cells; Dose 2 uM, listed as 9276) [% vehicle control] | APP Toxicity SH-SY-5Y Cells (MTS assay) (SH-SY-5Y Cells; Dose 6 uM, listed as 9276) [% vehicle control] | APP Toxicity SH-SY-5Y Cells (MTS assay) (SH-SY-5Y Cells; Dose 20 uM, listed as 9276) [% vehicle control] |
| --- | --- | --- | --- | --- | --- | --- | --- | --- | --- | --- | --- | --- | --- | --- | --- |
| Cc1cc2c(cc1O)[C@]1(C)CCN(C)C1N2C (stereo partly drawn) [MES 9267] | 97.8 | 97.43 | 97.43 | 93.68 | 68.64 | 22.22 | 101.5 | 102 | 101.9 | 97.98 | 96.72 | 15.52 | – | – | – |
| C/N=C(\C)c1cccc(OC)c1 [MES 9270] | – | – | – | 95.8 | 95.9 | 98.15 | – | – | – | 99.4 | 101.1 | 100.4 | – | – | – |
| CNC(C)c1cccc(OC)c1 (stereo not drawn) [MES 9271, 3-Methoxy-(1′-N-methylamino)-ethyl-benzene] | 96.6 | 87.95 | 92.2 | 96.1 | 89.9 | 63.825 | 103.55 | 103.45 | 103.1 | 99 | 99.475 | 94.1 | – | – | – |
| COc1ccc2c(c1)[C@]1(C)CCN(Cc3ccccc3)C1N2C (stereo partly drawn) [MES 9276] | – | – | – | 96.15 | 116.95 | 133.4 | – | – | – | – | – | – | 92.85 | 93.5 | 90.65 |
| COc1ccc2c(c1)[C@]1(C)CCN(Cc3ccccc3)C1N2C=O (stereo partly drawn) [MES 9277] | – | – | – | 98.25 | 109 | 113.6 | – | – | – | 98.25 | 98.3 | 91.1 | – | – | – |
| COc1ccc2c(c1)[C@]1(C)CCN(Cc3ccccc3)C1N2 (stereo partly drawn) [MES 9278] | – | – | – | 118.4 | 116.8 | 120.6 | – | – | – | 97.63 | 98.4 | 96.33 | – | – | – |
| C[C@@]12CCN(Cc3ccccc3)C1Nc1ccc(O)cc12 (stereo partly drawn) [MES 9279] | 97.8 | 98.4 | 97 | 43.27 | 42.37 | 18.4 | 102.9 | 101.1 | 100.1 | 68.63 | 46.67 | 38.63 | – | – | – |
| CC(Br)C(=O)N(C)c1ccc(O)cc1 (stereo not drawn) [MES 9291, Propionanilde] | 98.2 | 99.5 | 99.7 | 100.1 | 96.9 | 67.8 | 99.1 | 100.5 | 97.1 | 102.4 | 99.87 | 99 | – | – | – |
